Assay results taken from article PMC11012124, “Synthesis of Novel Triazine-Based Chalcones and 8,9-dihydro-7H-pyrimido[4,5-b][1,4]diazepines as Potential Leads in the Search of Anticancer, Antibacterial and Antifungal Agents” (International Journal of Molecular Sciences, 2024).
Values after ≈ are worked out from the molar mass of the structure shown.

Legend:
[1] = system: SNB-75; assay: cells; conditions: Homo sapiens, SNB-75, 48 h
[2] = system: NCI-H23; assay: cells; conditions: Homo sapiens, NCI-H23, 48 h
[3] = system: M. tuberculosis ATCC 27294; assay: Antitubercular broth microdilution MIC; format: cell-based; conditions: Mycobacterium tuberculosis; M. tuberculosis ATCC 27294 (H37Rv); read-out: Minimum inhibitory concentration (MIC)
[4] = system: SNB-19; assay: cells; conditions: Homo sapiens, SNB-19, 48 h
[5] = system: NCI/ADR-RES; assay: cells; conditions: Homo sapiens, 48 h
[6] = system: KM12; assay: cells; conditions: Homo sapiens, KM12, 48 h
[7] = system: SK-MEL-28; assay: cells; conditions: Homo sapiens, SK-MEL-28, 48 h
[8] = system: SK-MEL-5; assay: cells; conditions: Homo sapiens, SK-MEL-5, 48 h
[9] = system: SK-OV-3; assay: cells; conditions: Homo sapiens, SK-OV-3, 48 h
[10] = system: A549/ATCC; assay: cells; conditions: Homo sapiens, A549, 48 h
[11] = system: HCT-15; assay: cells; conditions: Homo sapiens, HCT-15, 48 h
[12] = system: K-562; assay: cells; conditions: Homo sapiens, K562, 48 h
[13] = system: HOP-92; assay: cells; conditions: Homo sapiens, HOP-92, 48 h
[14] = system: A. flavus (ATCC 9170); assay: Antifungal broth microdilution (CLSI); format: cell-based; conditions: ATCC9170; Afl: Aspergillus flavus
Outline: (§1)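 Broth microdilution followed CLSI M27-A3 for yeasts and the filamentous-fungi reference method, in 200 μL final volume with DMSO-matched growth controls. Plates were incubated in the dark and humid at 30 °C for a time suited to each fungus; testing was done in triplicate.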

[15] = system: Microsporum gypseum (CCC 115); assay: Antifungal broth microdilution (CLSI); format: cell-based; conditions: Nannizzia gypsea; Mg: Microsporum gypseum
Outline: as §1

[16] = system: Cryptococcus neoformans (ATCC 32264); assay: Antifungal broth microdilution (CLSI); format: cell-based; conditions: ATCC32264; Cn: Cryptococcus neoformans
Outline: as §1

[17] = system: A. fumigatus (ATCC 26934); assay: Antifungal broth microdilution (CLSI); format: cell-based; conditions: ATCC26934; Afu: Aspergillus fumigatus
Outline: as §1

[18] = system: Trichophyton rubrum (CCC 134-2000); assay: Antifungal broth microdilution (CLSI); format: cell-based; conditions: Tr: Trichophyton rubrum
Outline: as §1

[19] = system: Trichophyton mentagrophytes (CCC 202-2000); assay: Antifungal broth microdilution (CLSI); format: cell-based; conditions: Tm: Trichophyton mentagrophytes
Outline: as §1

[20] = system: MDA-MB-468; assay: cells; conditions: Homo sapiens, MDA-MB-468, 48 h
[21] = system: CAKI-1; assay: cells; conditions: Homo sapiens, CAKI-1, 48 h
[22] = system: RXF 393; assay: cells; conditions: Homo sapiens, RXF 393, 48 h
[23] = system: TK-10; assay: cells; conditions: Homo sapiens, TK-10, 48 h
[24] = system: NCI-H460; assay: cells; conditions: Homo sapiens, NCI-H460, 48 h
[25] = system: HCC-2998; assay: cells; conditions: Homo sapiens, HCC 2998, 48 h
[26] = system: SR; assay: cells; conditions: Homo sapiens, 48 h
[27] = system: NCI-H522; assay: cells; conditions: Homo sapiens, NCI-H522, 48 h
[28] = system: IGROV1; assay: cells; conditions: Homo sapiens, IGROV-1, 48 h
[29] = system: 786-0; assay: cells; conditions: Homo sapiens, 786-0, 48 h
[30] = system: SW-620; assay: cells; conditions: Homo sapiens, SW-620, 48 h
[31] = system: SK-MEL-2; assay: cells; conditions: Homo sapiens, SK-MEL-2, 48 h

COc1ccc(/C=C/C(=O)c2ccc(S(=O)(=O)NCCNc3nc(Nc4ccc(F)cc4)nc(N(C)C)n3)cc2)cc1 [24c]
GI50 [1]: 3.57 µM
CC50 ([1]; read-out: LC50): > 100 µM
GI50 [2]: 10.4 µM
CC50 ([2]; read-out: LC50): > 100 µM
MIC [3]: 25 µg/mL (≈ 42.3 µM)
GI50 [4]: 5.58 µM
CC50 ([4]; read-out: LC50): > 100 µM
GI50 [5]: 5.66 µM
CC50 ([5]; read-out: LC50): > 100 µM
GI50 [6]: 4.01 µM
CC50 ([6]; read-out: LC50): 72 µM
GI50 [7]: 5.23 µM
CC50 ([7]; read-out: LC50): 47.3 µM
GI50 [8]: 3.5 µM
CC50 ([8]; read-out: LC50): 36.4 µM
GI50 [9]: 13.9 µM
CC50 ([9]; read-out: LC50): > 100 µM
GI50 [10]: 6.54 µM
CC50 ([10]; read-out: LC50): > 100 µM
GI50 [11]: 2.71 µM
CC50 ([11]; read-out: LC50): 27.4 µM
GI50 ([12]; K-562, 48 h): 3.99 µM
CC50 ([12]; read-out: LC50): > 100 µM
GI50 [13]: 3.25 µM
CC50 ([13]; read-out: LC50): > 100 µM
MIC [14]: > 250 µg/mL
MIC [15]: > 250 µg/mL
MIC [16]: > 250 µg/mL
MIC [17]: > 250 µg/mL
MIC [18]: 125 µg/mL (≈ 211 µM)
MIC [19]: > 250 µg/mL
GI50 [20]: 2.57 µM
CC50 ([20]; read-out: LC50): 52.6 µM
GI50 [21]: 3.34 µM
CC50 ([21]; read-out: LC50): > 100 µM
GI50 [22]: 2.59 µM
CC50 ([22]; read-out: LC50): 41.7 µM
GI50 [23]: 8.09 µM
CC50 ([23]; read-out: LC50): > 100 µM
GI50 [24]: 4.11 µM
CC50 ([24]; read-out: LC50): > 100 µM
GI50 [25]: 5.47 µM
CC50 ([25]; read-out: LC50): 43.2 µM
GI50 [26]: 2.97 µM
CC50 ([26]; read-out: LC50): > 100 µM
GI50 [27]: 2.55 µM
CC50 ([27]; read-out: LC50): 67.1 µM
GI50 [28]: 10.8 µM
CC50 ([28]; read-out: LC50): > 100 µM
GI50 [29]: 6.33 µM
CC50 ([29]; read-out: LC50): > 100 µM
GI50 [30]: 5.42 µM
CC50 ([30]; read-out: LC50): 52.3 µM
GI50 [31]: 8.1 µM
CC50 ([31]; read-out: LC50): 53.4 µM
